Data reported in the supplement of paper PMC10307832.

Tests used:
Assay in all cases: relative viability (nuclei count vs DMSO), 5 days (fraction); higher = more cells survive
[1] = compound: CCN1C(=O)C2=CC(=C(N=C2N(C1=O)C3CC3)N)C(=O)N + Cc1nc(NC(=O)N2CCC[C@H]2C(N)=O)sc1-c1ccnc(C(C)(C)C(F)(F)F)c1 [Alpelisib] (partner 2 µM)
In short: (§1)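 Lung cancer cell lines in 1536-well plates were dosed by pin tool the day after seeding, either with one drug alone or with a fixed anchor-drug dose plus five library-drug doses (not always all listed) in √10 steps. After 5 days, cells were fixed and their nuclei stained in one step (final 0.05% Triton X-100, 1% formaldehyde, 1 ug/ml Hoechst), then counted on 4× images. Relative viability is the nuclei count in treated wells divided by that in vehicle wells. Values are medians of duplicate plates.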

[2] = compound: CCN1C(=O)C2=CC(=C(N=C2N(C1=O)C3CC3)N)C(=O)N + O=C(c1cc(Cc2n[nH]c(=O)c3ccccc23)ccc1F)N1CCN(C(=O)C2CC2)CC1 [Olaparib] (partner 8 µM)
In short: as §1

[3] = compound: CCN1C(=O)C2=CC(=C(N=C2N(C1=O)C3CC3)N)C(=O)N + Nc1nc2[nH]cc(CCc3ccc(C(=O)N[C@@H](CCC(=O)O)C(=O)O)cc3)c2c(=O)[nH]1 [Pemetrexed] (partner 0.2 µM)
In short: as §1

[4] = compound: CCN1C(=O)C2=CC(=C(N=C2N(C1=O)C3CC3)N)C(=O)N + Nc1ncn([C@H]2C[C@H](O)[C@@H](CO)O2)c(=O)n1 [Decitabine] (partner 2 µM)
In short: as §1

[5] = compound: CCN1C(=O)C2=CC(=C(N=C2N(C1=O)C3CC3)N)C(=O)N + O=C(CCCCCCC(=O)Nc1ccccc1)NO [Vorinostat] (partner 1 µM)
In short: as §1

Cell Line	relative viability ([1]; first compound 0.253 µM)	relative viability ([1]; first compound 0.8 µM)	relative viability ([1]; first compound 2.53 µM)	relative viability ([1]; first compound 8 µM)	relative viability ([2]; first compound 0.253 µM)	relative viability ([2]; first compound 0.8 µM)	relative viability ([2]; first compound 2.53 µM)	relative viability ([2]; first compound 8 µM)	relative viability ([3]; first compound 0.253 µM)	relative viability ([3]; first compound 0.8 µM)	relative viability ([3]; first compound 2.53 µM)	relative viability ([3]; first compound 8 µM)	relative viability ([4]; first compound 0.253 µM)	relative viability ([4]; first compound 0.8 µM)	relative viability ([4]; first compound 2.53 µM)	relative viability ([4]; first compound 8 µM)	relative viability ([5]; first compound 0.253 µM)	relative viability ([5]; first compound 0.8 µM)	relative viability ([5]; first compound 2.53 µM)	relative viability ([5]; first compound 8 µM)
NCI-H1755	0.946	0.922	0.946	0.913	0.908	0.872	0.831	0.843	0.525	0.412	0.418	0.471	0.771	0.743	0.704	0.652	0.743	0.722	0.76	0.719
NCI-H1395	0.958	1.04	1.01	0.976	0.43	0.481	0.457	0.491	0.922	0.811	0.979	0.816	0.698	0.75	0.707	0.609	0.716	0.549	0.912	0.674
NCI-H2087	1.09	1.07	1.12	1.08	0.638	0.82	0.643	0.585	0.676	0.629	0.677	0.608	0.324	0.251	0.297	0.298	0.634	1.23	0.911	0.676
H3255	0.653	0.609	0.631	0.624	0.567	0.556	0.567	0.633	0.588	0.555	0.536	0.558	0.582	0.582	0.61	0.604	0.838	0.688	0.819	0.831
SK-MES-1	0.865	0.917	0.85	0.962	0.77	0.76	0.713	0.665	0.981	0.911	0.858	0.882	0.381	0.359	0.4	0.365	1.04	1.01	1.04	1.08
NCI-H23	0.638	0.741	0.615	0.789	0.325	0.292	0.336	0.332	0.785	0.734	0.677	0.634	0.315	0.305	0.289	0.32	0.548	0.715	0.58	0.635
HCC-827	0.915	0.964	0.941	0.88	0.681	0.679	0.584	0.699	0.259	0.268	0.224	0.264	0.342	0.284	0.332	0.319	0.498	0.709	1	0.819
HCC-78	0.299	0.337	0.31	0.467	0.807	0.902	0.691	0.959	0.866	0.949	0.813	0.842	0.681	0.636	0.726	0.639	0.451	0.437	0.437	0.462
